From article PMC8854719, “Phase 1A/1B dose-escalation and -expansion study to evaluate the safety, pharmacokinetics, food effects and antitumor activity of pamiparib in advanced solid tumours” (British Journal of Cancer, 2021)

Test system: advanced solid tumours
Assay: Tumour response and PFS per RECIST v1.1, overall efficacy-evaluable population
Type: in vivo, human
Protocol: Pamiparib in plasma was measured using a validated liquid chromatography-tandem–mass spectrometry assay with a lower limit of quantification of 1.0 ng/mL. The collection schedule for blood samples used to assess the PK profile is presented in the Supplemental Appendix. Summary PK parameters, including area under the concentration-time curve from time 0 to 9 h (AUC0-9) or infinity (AUC0-inf), maximal plasma concentration (Cmax) and time to maximal plasma concentration (Tmax), were estimated. The pharmacodynamic (PD) activity of pamiparib was explored through the evaluation of poly(ADP-ribose [PAR]) formation in peripheral blood mononuclear cells (PBMCs) after pamiparib administration. The schedule for blood sample collection (PK and PBMCs) and additional assessment information for PAR levels in PBMCs and pharmacodynamic activity is presented in the Supplemental Appendix. Antitumor activity was assessed by radiographic imaging (computed tomography or magnetic resonance imaging) during screening, within 28 days of first pamiparib dose, every 6 weeks in the first 12 months and every 9 weeks thereafter.
Tumour response was evaluated by RECIST v1.1. For patients with ovarian cancer, tumour response was assessed per RECIST v1.1 and by Gynecologic Cancer Intergroup (GCIG) CA-125 criteria. Tumour response for patients with prostate cancer was assessed by Prostate Cancer Clinical Trials Working Group 2 (PCWG2) criteria. Objective response rate (ORR) was defined as the proportion of patients achieving a confirmed complete response (CR) or partial response (PR) on study treatment. Blood tumour antigens (e.g., carcinoembryonic antigen for colorectal cancer, CA-125 for ovarian cancer and prostate-specific antigen [PSA] for mCRPC) were assessed during screening, every 6 weeks after the first pamiparib dose in the first 12 months, and every 9 weeks thereafter.
The safety population comprised all patients in the dose-escalation and dose-expansion phases who received at least one dose of pamiparib (Supplementary Table S2). Patients in the safety analysis set for whom valid pamiparib PK parameters were estimated and for whom evaluable PD results were available represented the PK population and the PD population, respectively. The efficacy-evaluable population included patients in the safety analysis set who had at least one evaluable postbaseline tumour assessment or those who discontinued due to clinical disease progression or early death before tumour assessment could be performed. The EOC efficacy-evaluable population was a subset of the overall efficacy-evaluable population that included patients with EOC from both the dose-escalation and dose-expansion phases. Patients in the dose-expansion phase without measurable disease at baseline per RECIST v1.1 were excluded from the efficacy-evaluable population.
Descriptive statistics were used to summarise all study data (see Supplemental Appendix). Progression-free survival (PFS) and event-free rates were estimated using the Kaplan–Meier method along with the corresponding 95% CI. Pharmacokinetic parameters were derived using standard non-compartmental methods with Phoenix WinNonlin Version 6.4 or higher (Pharsight Corp., Mountain View, California).

[1] = BID efficacy-evaluable population (n = 77)
[2] = Total BID dosage group, overall efficacy-evaluable (n = 77)
[3] = dose escalation, 2.5 mg BID (n=4)
[4] = dose escalation, 5.0 mg BID (n=3)
[5] = dose escalation, 10 mg BID (n=3)
[6] = dose escalation, 20 mg BID (n=3)
[7] = dose escalation, 40 mg BID (n=6)
[8] = dose escalation, 60 mg BID (n=11)
[9] = dose escalation, 80 mg BID (n=9)
[10] = dose escalation, 120 mg BID (n=5)
[11] = dose escalation, Total BID (N=44)
[12] = overall efficacy-evaluable population (n=95)

C[C@]12CCCN1CC1=NNC(=O)c3cc(F)cc4[nH]c2c1c34 [pamiparib]
Median duration of response (BID dosage group): 14.9 months
Confirmed CRs [1]: 5.2%
Confirmed PRs [1]: 22.1%
Confirmed CRs (in words) (QD dosage group (n=18)): no confirmed CRs
Confirmed ORR (QD dosage group (n=18)): 11.1%
Confirmed PRs (QD dosage group (n=18)): 11.1%
Event-free rate, 1 year (Total (N=95)): 32.7 (21.73-44.18) % (95% CI)
Event-free rate, 2 years (Total (N=95)): 11.0 (4.13-21.80) % (95% CI)
PFS censored: New anticancer therapy received before event (Total (N=95)): 1 (1.1) n (%)
PFS censored: No disease progression or death (Total (N=95)): 27 (28.4) n (%)
PFS censored: No postbaseline assessment (Total (N=95)): 5 (5.3) n (%)
PFS censored: ≥2 consecutive missed assessments (Total (N=95)): 2 (2.1) n (%)
PFS events: Death (Total (N=95)): 10 (10.5) n (%)
PFS events: Disease progression (Total (N=95)): 50 (52.6) n (%)
PFS: Censored (Total (N=95)): 35 (36.8) n (%)
PFS: Events (Total (N=95)): 60 (63.2) n (%)
Progression-Free Survival, Median (Total (N=95)): 5.5 (4.14-8.31) months (95% CI)
Event-free rate, 1 year (Total BID Dosage Group (n=77)): 34.0 (21.72-46.58) % (95% CI)
Event-free rate, 2 years (Total BID Dosage Group (n=77)): 12.2 (4.52-24.01) % (95% CI)
PFS censored: New anticancer therapy received before event (Total BID Dosage Group (n=77)): 1 (1.3) n (%)
PFS censored: No disease progression or death (Total BID Dosage Group (n=77)): 20 (26.0) n (%)
PFS censored: No postbaseline assessment (Total BID Dosage Group (n=77)): 5 (6.5) n (%)
PFS censored: ≥2 consecutive missed assessments (Total BID Dosage Group (n=77)): 2 (2.6) n (%)
PFS events: Death (Total BID Dosage Group (n=77)): 7 (9.1) n (%)
PFS events: Disease progression (Total BID Dosage Group (n=77)): 42 (54.5) n (%)
PFS: Censored (Total BID Dosage Group (n=77)): 28 (36.4) n (%)
PFS: Events (Total BID Dosage Group (n=77)): 49 (63.6) n (%)
Progression-Free Survival, Median (Total BID Dosage Group (n=77)): 6.9 (4.14-9.89) months (95% CI)
Best overall response: Complete response [2]: 4 (5.2) n (%)
Best overall response: Not assessed [2]: 7 (9.1) n (%)
Best overall response: Not evaluable [2]: 1 (1.3) n (%)
Best overall response: Partial response [2]: 17 (22.1) n (%)
Best overall response: Progressive disease [2]: 11 (14.3) n (%)
Best overall response: Stable disease [2]: 37 (48.1) n (%)
Clinical benefit rate [2]: 39.0 (28.1–50.8) % (95% CI)
Disease control rate [2]: 75.3 (64.2–84.4) % (95% CI)
Objective response rate [2]: 27.3 (17.7–38.6) % (95% CI)
Event-free rate, 1 year (Total QD Dosage Group (n=18)): 30.1 (8.73-55.34) % (95% CI)
Event-free rate, 2 years (Total QD Dosage Group (n=18)): 0.0 (NE-NE) % (95% CI)
PFS censored: New anticancer therapy received before event (Total QD Dosage Group (n=18)): 0 (0) n (%)
PFS censored: No disease progression or death (Total QD Dosage Group (n=18)): 7 (38.9) n (%)
PFS censored: No postbaseline assessment (Total QD Dosage Group (n=18)): 0 (0) n (%)
PFS censored: ≥2 consecutive missed assessments (Total QD Dosage Group (n=18)): 0 (0) n (%)
PFS events: Death (Total QD Dosage Group (n=18)): 3 (16.7) n (%)
PFS events: Disease progression (Total QD Dosage Group (n=18)): 8 (44.4) n (%)
PFS: Censored (Total QD Dosage Group (n=18)): 7 (38.9) n (%)
PFS: Events (Total QD Dosage Group (n=18)): 11 (61.1) n (%)
Progression-Free Survival, Median (Total QD Dosage Group (n=18)): 4.9 (3.22-12.32) months (95% CI)
Best overall response: Complete response [3]: 0 (0.0) n (%)
Best overall response: Not assessed [3]: 2 (50.0) n (%)
Best overall response: Not evaluable [3]: 0 (0.0) n (%)
Best overall response: Partial response [3]: 1 (25.0) n (%)
Best overall response: Progressive disease [3]: 1 (25.0) n (%)
Best overall response: Stable disease [3]: 0 (0.0) n (%)
Clinical benefit rate [3]: 25.0 (0.63-80.59) % (95% CI)
Disease control rate [3]: 25.0 (0.63-80.59) % (95% CI)
Objective response rate [3]: 25.0 (0.63-80.59) % (95% CI)
Best overall response: Complete response [4]: 0 (0.0) n (%)
Best overall response: Not assessed [4]: 1 (33.3) n (%)
Best overall response: Not evaluable [4]: 0 (0.0) n (%)
Best overall response: Partial response [4]: 1 (33.3) n (%)
Best overall response: Progressive disease [4]: 0 (0.0) n (%)
Best overall response: Stable disease [4]: 1 (33.3) n (%)
Clinical benefit rate [4]: 33.3 (0.84-90.57) % (95% CI)
Objective response rate [4]: 33.3 (0.84-90.57) % (95% CI)
Best overall response: Complete response [5]: 0 (0.0) n (%)
Best overall response: Not assessed [5]: 0 (0.0) n (%)
Best overall response: Not evaluable [5]: 0 (0.0) n (%)
Best overall response: Partial response [5]: 0 (0.0) n (%)
Best overall response: Progressive disease [5]: 1 (33.3) n (%)
Best overall response: Stable disease [5]: 2 (66.7) n (%)
Clinical benefit rate [5]: 0.0 (0.00-70.76) % (95% CI)
Disease control rate [5]: 66.7 (9.43-99.16) % (95% CI)
Objective response rate [5]: 0.0 (0.00-70.76) % (95% CI)
Best overall response: Complete response [6]: 1 (33.3) n (%)
Best overall response: Not assessed [6]: 0 (0.0) n (%)
Best overall response: Not evaluable [6]: 0 (0.0) n (%)
Best overall response: Partial response [6]: 1 (33.3) n (%)
Best overall response: Progressive disease [6]: 1 (33.3) n (%)
Best overall response: Stable disease [6]: 0 (0.0) n (%)
Clinical benefit rate [6]: 66.7 (9.43-99.16) % (95% CI)
Disease control rate [6]: 66.7 (9.43-99.16) % (95% CI)
Objective response rate [6]: 66.7 (9.43-99.16) % (95% CI)
Best overall response: Complete response [7]: 0 (0.0) n (%)
Best overall response: Not assessed [7]: 0 (0.0) n (%)
Best overall response: Not evaluable [7]: 0 (0.0) n (%)
Best overall response: Partial response [7]: 2 (33.3) n (%)
Best overall response: Progressive disease [7]: 0 (0.0) n (%)
Best overall response: Stable disease [7]: 4 (66.7) n (%)
Clinical benefit rate [7]: 33.3 (4.33-77.72) % (95% CI)
Disease control rate [7]: 100.0 (54.07-100.00) % (95% CI)
Objective response rate [7]: 33.3 (4.33-77.72) % (95% CI)
Best overall response: Complete response [8]: 1 (9.1) n (%)
Best overall response: Not assessed [8]: 2 (18.2) n (%)
Best overall response: Not evaluable [8]: 0 (0.0) n (%)
Best overall response: Partial response [8]: 0 (0.0) n (%)
Best overall response: Progressive disease [8]: 3 (27.3) n (%)
Best overall response: Stable disease [8]: 5 (45.5) n (%)
Clinical benefit rate [8]: 18.2 (2.28-51.78) % (95% CI)
Disease control rate [8]: 54.5 (23.38-83.25) % (95% CI)
Objective response rate [8]: 9.1 (0.23-41.28) % (95% CI)
Best overall response: Complete response [9]: 1 (11.1) n (%)
Best overall response: Not assessed [9]: 1 (11.1) n (%)
Best overall response: Not evaluable [9]: 0 (0.0) n (%)
Best overall response: Partial response [9]: 1 (11.1) n (%)
Best overall response: Progressive disease [9]: 1 (11.1) n (%)
Best overall response: Stable disease [9]: 5 (55.6) n (%)
Clinical benefit rate [9]: 44.4 (13.70-78.80) % (95% CI)
Disease control rate [9]: 77.8 (39.99-97.19) % (95% CI)
Objective response rate [9]: 22.2 (2.81-60.01) % (95% CI)
Best overall response: Complete response [10]: 0 (0.0) n (%)
Best overall response: Not assessed [10]: 1 (20.0) n (%)
Best overall response: Not evaluable [10]: 1 (20.0) n (%)
Best overall response: Partial response [10]: 1 (20.0) n (%)
Best overall response: Progressive disease [10]: 1 (20.0) n (%)
Best overall response: Stable disease [10]: 1 (20.0) n (%)
Clinical benefit rate [10]: 20.0 (0.51-71.64) % (95% CI)
Disease control rate [10]: 40.0 (5.27-85.34) % (95% CI)
Objective response rate [10]: 20.0 (0.51-71.64) % (95% CI)
Best overall response: Complete response [11]: 3 (6.8) n (%)
Best overall response: Not assessed [11]: 7 (15.9) n (%)
Best overall response: Not evaluable [11]: 1 (2.3) n (%)
Best overall response: Partial response [11]: 7 (15.9) n (%)
Best overall response: Progressive disease [11]: 8 (18.2) n (%)
Best overall response: Stable disease [11]: 18 (40.9) n (%)
Clinical benefit rate [11]: 29.5 (16.76-45.20) % (95% CI)
Disease control rate [11]: 63.6 (47.77-77.59) % (95% CI)
Objective response rate [11]: 22.7 (11.47-37.84) % (95% CI)
Patients who died (efficacy-evaluable patients (N 95), n = 10): 10.5%
Patients who progressed (efficacy-evaluable patients (N 95), n = 50): 52.6%
Patients who died or progressed (efficacy-evaluable patients, 60/95): 63.2%
Confirmed complete responses [12]: 4.2%
Confirmed partial responses [12]: 20%
Confirmed ORR (overall efficacy-evaluable population (n=95), BID and QD): 24.2%
